From publication PMC9599757, “Leveraging the Structure of DNAJA1 to Discover Novel Potential Pancreatic Cancer Therapies” (Biomolecules, 2022) come the findings set out here.

Experiment [1] addresses T1, DNAJA1 (Homo sapiens, UniProt P31689).
T1 construct: DNAJA1-107 (residues 1 to 107, J-domain and linker, N-terminal 6x-His tag)
The experiment in a line: ITC; STD NMR and 2D 1H-15N HSQC chemical shift perturbation. Type of experiment: binding. (In general: In ITC the heat of successive injections is recorded.)

For experiment [2], the target named is T1, DNAJA1. In words: 1D […] NMR line broadening and 2D 1H-15N HSQC chemical shift perturbation. The experiment is classed as binding.
The target of experiment [3] is T2, DNAJA1-107 (residues 1 to 107 of human DnaJ homolog subfamily A member 1) (human, UniProt P31689 1-107).
T2 construct: The methods name an N-terminal 6x-histidine tag; 15N-labelled for the NMR experiment with ANT3; source: for the pull-down immobilised on cobalt resin; not shown: His6, N-terminal, kept
The experiment in a line: NMR titration; 15N-DNAJA1-107 mixed with ANT3 (232-272) at DNAJA1-107:ANT3 molar ratios 10:1, 5:1 and 1:1 (50 uM each at equal molarity); 10 mM Tris-HCl, 1 mM EDTA, 6% trehalose, pH 8.0; 2D 1H-15N HSQC; immediate, concentration-dependent precipitation on mixing taken as the sign of interaction. As to conditions: both partners purified.

For `CCOc1ccc(-c2cc(OC(=O)c3cccs3)c3c(C)oc(C)c3c(=O)c2)cc1` [compound 7727968, 6-(4-ethoxyphenyl)-1,3-dimethyl-4-oxo-4H-cyclohepta[c]furan-8-yl 2-thiophenecarboxylate], the Kd at DNAJA1 [1] came out at 10 µM. With `O=C(c1ccc(Br)s1)N1CCN(c2ccc(F)cc2)CC1` [compound 9101204, 1-[(5-bromo-2-thienyl)carbonyl]-4-(4-fluorophenyl)piperazine], the Kd on DNAJA1 [1] came out at 0.1 ± 0.3 µM. As for `Nc1ncnc2c1ncn2[C@@H]1O[C@H](COP(=O)(O)OP(=O)(O)O)[C@@H](O)[C@H]1O` [ADP], the “1D 31P NMR line broadening and 2D 1H-15N HSQC chemical shift perturbation” value at DNAJA1 [2] is “ADP, O-phospho-L-serine, O-phospho-L-tyrosine, and dihydroxyacetone phosphate exhibited specific binding to DNAJA1-107”.

B1: Recombinant Human ADP/ATP translocase 3 (ANT3), amino acids 232-272 (domain or fragment, UniProt P12236 232-272, looked up)
chain: DTVRRRMMMQSGRKGADIMYTGTVDCWRKIFRDEGGKAFFK
notes: ADP/ATP translocase 3 (ANT3), human, amino acids 232-272; The construct included an N-terminal 6xHis-KSI tag to aid purification and solubility; also called ANT3 construct; source: bought: CUSABIO, catalog number CSB-EP021520HU1
Consider B1, for which the binding result in experiment [3] is given as “binds”.

Usually Kd stands for the equilibrium constant for the complex coming apart.
